Measurements from PMC5908784, “Extracellular loops 2 and 3 of the calcitonin receptor selectively modify agonist binding and efficacy” (Biochemical Pharmacology, 2018).
Numbering of substitutions follows the chain as printed. Where a SMILES comes first, the peptide text is derived from it. Bridges are numbered along the chain shown (N, C = ends).

Assays:
Assay in all cases: IP1 accumulation
Format in all cases: cell-based
Details in all cases: mean ± S.E.M.; for Emax: IP1 maximal response, SEM
hCTR G369A = biological target: T1, hCTR G369A (Homo sapiens, UniProt P30988, G369A)
T1 construct: c-Myc (N); expressed in transfected cells
T1 sequence (P30988 25-474 G369A): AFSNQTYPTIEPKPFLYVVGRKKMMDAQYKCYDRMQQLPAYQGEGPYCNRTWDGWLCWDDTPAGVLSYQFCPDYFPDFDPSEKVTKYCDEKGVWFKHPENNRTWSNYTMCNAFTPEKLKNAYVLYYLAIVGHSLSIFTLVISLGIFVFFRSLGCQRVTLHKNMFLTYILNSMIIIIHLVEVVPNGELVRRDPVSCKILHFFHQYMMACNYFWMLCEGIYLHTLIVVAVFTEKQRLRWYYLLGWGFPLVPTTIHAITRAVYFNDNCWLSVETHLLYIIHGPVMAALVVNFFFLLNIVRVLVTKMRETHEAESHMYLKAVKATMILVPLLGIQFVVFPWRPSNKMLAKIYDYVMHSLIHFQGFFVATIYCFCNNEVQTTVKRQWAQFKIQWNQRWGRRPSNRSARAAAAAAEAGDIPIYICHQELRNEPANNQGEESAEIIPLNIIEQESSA
Experimental: (§1) Cells (2.5 × 10^4 cells/well) were plated into 96 well trays and cultured overnight. Cells were stimulated with increasing concentration of ligands for 60 min in the presence of LiCl. Samples were lysed and endogenous IP1 was measured using an IP-One HTRF® assay kit (CisBio) as specified by the manufacturer. Data were normalized to the maximal response elicited by 100 μM of ATP.
(§2) Data were corrected for radioligand occupancy using the Cheng-Prusoff equation in Prism; as such data are reported as pKi. Emax and EC50 were estimated from concentration-response curves using with a 3-parameter logistic equation in Prism (v7). These values are a composite of functional affinity, efficacy and stimulus response coupling. […] Significance was accepted at P < 0.05.

hCTR Y372A = biological target: T2, hCTR Y372A (Homo sapiens, UniProt P30988, Y372A)
T2 construct: c-Myc (N); expressed in transfected cells
T2 sequence (P30988 25-474 Y372A): T1 sequence (P30988 25-474 G369A) with A345G, Y348A
Experimental: as §1, §2

hCTR R362A = biological target: T3, hCTR R362A (Homo sapiens, UniProt P30988, R362A)
T3 construct: expressed in transfected cells
T3 sequence (P30988 25-474 R362A): T1 sequence (P30988 25-474 G369A) with R338A, A345G
Experimental: as §1, §2

hCTR M376A = biological target: T4, hCTR M376A (Homo sapiens, UniProt P30988, M376A)
T4 construct: c-Myc (N); expressed in transfected cells
T4 sequence (P30988 25-474 M376A): T1 sequence (P30988 25-474 G369A) with A345G, M352A
Experimental: as §1, §2

hCTR S292A = biological target: T5, hCTR S292A (Homo sapiens, UniProt P30988, S292A)
T5 construct: expressed in transfected cells
T5 sequence (P30988 25-474 S292A): T1 sequence (P30988 25-474 G369A) with S268A, A345G
Experimental: as §1, §2

[1] = IP1, CV1-FlpIn cells, 60 min, LiCl

| EC50 (hCTR G369A; [1]) | EC50 (hCTR Y372A; [1]) | EC50 (hCTR R362A; [1]) | EC50 (hCTR M376A; [1]) | EC50 (hCTR S292A; [1]) | Structure (SMILES) | Emax (hCTR G369A) | Emax (hCTR Y372A) | Emax (hCTR R362A) | Emax (hCTR M376A) | Emax (hCTR S292A) |
| --- | --- | --- | --- | --- | --- | --- | --- | --- | --- | --- |
| – | – | – | – | – | CC[C@H](C)[C@H](NC(=O)[C@H](C)NC(=O)[C@@H](NC(=O)[C@H](CCC(N)=O)NC(=O)[C@@H]1CCCN1C(=O)[C@H](Cc1ccccc1)NC(=O)[C@@H](NC(=O)[C@H](Cc1c[nH]cn1)NC(=O)[C@H](Cc1ccccc1)NC(=O)[C@H](CCCCN)NC(=O)[C@H](CC(N)=O)NC(=O)[C@H](Cc1ccccc1)NC(=O)[C@H](CC(=O)O)NC(=O)[C@H](CCC(N)=O)NC(=O)[C@@H](NC(=O)[C@H](Cc1ccc(O)cc1)NC(=O)[C@@H](NC(=O)CNC(=O)[C@H](CC(C)C)NC(=O)[C@H](CCSC)NC(=O)[C@@H]1CSSC[C@H](N)C(=O)NCC(=O)N[C@@H](CC(N)=O)C(=O)N[C@@H](CC(C)C)C(=O)N[C@@H](CO)C(=O)N[C@@H]([C@@H](C)O)C(=O)N1)[C@@H](C)O)[C@@H](C)O)[C@@H](C)O)[C@@H](C)O)C(=O)NCC(=O)N[C@H](C(=O)NCC(=O)N[C@@H](C)C(=O)N1CCC[C@H]1C(N)=O)C(C)C [hCT] | 148 ± 10% | 68 ± 9% | 77 ± 11% | 52 ± 5% | 70 ± 6% |
| 7.59 nM | 2.88 nM | 19.5 nM | 5.62 nM | 4.27 nM | CSCC[C@H](NC(=O)CNC(=O)[C@H](CO)NC(=O)[C@H](Cc1ccccc1)NC(=O)[C@H](CCCNC(=N)N)NC(=O)[C@H](Cc1c[nH]cn1)NC(=O)[C@H](Cc1ccccc1)NC(=O)[C@H](CC(N)=O)NC(=O)[C@H](CC(N)=O)NC(=O)[C@H](CC(C)C)NC(=O)[C@H](CC(N)=O)NC(=O)[C@H](CCCNC(=N)N)NC(=O)[C@H](Cc1c[nH]c2ccccc12)NC(=O)[C@H](Cc1ccc(O)cc1)NC(=O)[C@H](C)NC(=O)[C@H](CO)NC(=O)[C@H](CC(C)C)NC(=O)[C@@H](NC(=O)[C@@H]1CSSC[C@H](N)C(=O)N[C@@H](CO)C(=O)N[C@@H](CC(N)=O)C(=O)N[C@@H](CC(C)C)C(=O)N[C@@H](CO)C(=O)N[C@@H]([C@@H](C)O)C(=O)N1)C(C)C)C(=O)NCC(=O)N[C@@H](Cc1ccccc1)C(=O)NCC(=O)N1CCC[C@H]1C(=O)N[C@@H](CCC(=O)O)C(=O)N[C@H](C(=O)N1CCC[C@H]1C(N)=O)[C@@H](C)O [pCT] (H-CSNLSTCVLSAYWRNLNNFHRFSGMGFGPETP-NH2; disulfide 1-7) | 110 ± 6% | 44 ± 5% | 47 ± 9% | 47 ± 4% | 92 ± 7% |
| – | – | – | – | – | CC(C)C[C@H](NC(=O)[C@H](CCCCN)NC(=O)CNC(=O)[C@H](CC(C)C)NC(=O)[C@@H](NC(=O)[C@@H]1CSSC[C@H](N)C(=O)N[C@@H](CO)C(=O)N[C@@H](CC(N)=O)C(=O)N[C@@H](CC(C)C)C(=O)N[C@@H](CO)C(=O)N[C@@H]([C@@H](C)O)C(=O)N1)C(C)C)C(=O)N[C@@H](CO)C(=O)N[C@@H](CCC(N)=O)C(=O)N[C@@H](CCC(=O)O)C(=O)N[C@@H](CC(C)C)C(=O)N[C@@H](Cc1c[nH]cn1)C(=O)N[C@@H](CCCCN)C(=O)N[C@@H](CC(C)C)C(=O)N[C@@H](CCC(N)=O)C(=O)N[C@H](C(=O)N[C@@H](Cc1ccc(O)cc1)C(=O)N1CCC[C@H]1C(=O)N[C@@H](CCCNC(=N)N)C(=O)N[C@H](C(=O)N[C@@H](CC(N)=O)C(=O)N[C@H](C(=O)NCC(=O)N[C@@H](CO)C(=O)NCC(=O)N[C@H](C(=O)N1CCC[C@H]1C(N)=O)[C@@H](C)O)[C@@H](C)O)[C@@H](C)O)[C@@H](C)O [sCT] | 97 ± 7% | 46 ± 4% | 64 ± 5% | 95 ± 4% | 91 ± 6% |
